Assay results as given in patent publication US7902227B2, “C-7 isoxazolinyl quinolone / naphthyridine derivatives useful as antibacterial agents” (Janssen Pharmaceutica NV., priority 2008, dated 2011).
Values after ≈ are worked out from the molar mass of the structure shown.

How the values were obtained:
Format in all cases: cell-based
[1] = tested on: Staphylococcus aureus OC4172; assay: In vitro antibacterial activity (MIC), microdilution broth method (NCCLS), strain A; details: cation adjusted Mueller-Hinton broth, 35° C., 16-20 hours
Description: (§1) Minimal inhibitory concentration (MIC) has been an indicator of in vitro antibacterial activity widely used in the art. The in vitro antimicrobial activity of representative compounds of the present invention was determined by the microdilution broth method following the test method from the National Committee for Clinical Laboratory Standards (NCCLS). This method is described in the NCCLS Document M7-A4, Vol. 17, No. 2, “Methods for Dilution Antimicrobial Susceptibility Test for Bacteria that Grow Aerobically—Fourth Edition”, which is incorporated herein by reference.
(§2) In this method two-fold serial dilutions of drug in cation adjusted Mueller-Hinton broth are added to wells in microdilution trays. The test organisms are prepared by adjusting the turbidity of actively growing broth cultures so that the final concentration of test organism after it is added to the wells is approximately 5×10^4 CFU/well.
(§3) Following inoculation of the microdilution trays, the trays are incubated at 35° C. for 16-20 hours and then read. […] The amount of growth in the wells containing the test compound is compared with the amount of growth in the growth-control wells (no test compound) used in each tray. As set forth in Table 4, representative compounds of the present invention were tested against a variety of pathogenic bacteria resulting in a range of activities depending on the organism tested.

[2] = tested on: strain B, fluoroquinolone-resistant clinical isolate of Streptococcus pneumoniae; assay: In vitro antibacterial activity (MIC), microdilution broth method (NCCLS), strain B; details: read-out: In vitro Antibacterial Activity MIC, B
Description: as §1, §2, §3

[3] = tested on: strain C, fluoroquinolone-resistant clinical isolate of Streptococcus pneumoniae; assay: In vitro antibacterial activity (MIC), microdilution broth method (NCCLS), strain C; details: read-out: In vitro Antibacterial Activity MIC, C
Description: as §1, §2, §3

[4] = tested on: strain D, fluoroquinolone-resistant clinical isolate of Streptococcus pneumoniae; assay: In vitro antibacterial activity (MIC), microdilution broth method (NCCLS), strain D; details: read-out: In vitro Antibacterial Activity MIC, D
Description: as §1, §2, §3

[5] = tested on: Streptococcus pneumoniae ATCC 49619; assay: In vitro antibacterial activity (MIC), microdilution broth method (NCCLS), strain E; details: ATCC49619, 35° C., 16-20 hours
Description: as §1, §2, §3

SMILES	MIC [1]	MIC [2]	MIC [3]	MIC [4]	MIC [5]
COc1c(N2C[C@@H]3ON=C(c4cccnc4)[C@@H]3C2)c(F)cc2c(=O)c(C(=O)O)cn(C3CC3)c12 (relative stereo) [ID No. 123, 7-[cis-3-(3-Pyridyl)-3a,4,6,6a-tetrahydropyrrolo[3,4-d]isoxazol-5-yl]-1-cyclopropyl-8-methoxy-6-fluoro-4-oxo-1,4-dihydroquinoline-3-carboxylic acid]	0.06 µg/mL (≈ 0.129 µM)	8 µg/mL (≈ 17.2 µM)	8 µg/mL (≈ 17.2 µM)	2 µg/mL (≈ 4.31 µM)	0.5 µg/mL (≈ 1.08 µM)
O=C(O)c1cn(C2CC2)c2nc(N3CC4ON=C(c5ccncc5)C4C3)c(F)cc2c1=O (stereo not drawn) [ID No. 115]	0.06 µg/mL (≈ 0.138 µM)	16 µg/mL (≈ 36.7 µM)	8 µg/mL (≈ 18.4 µM)	4 µg/mL (≈ 9.19 µM)	1 µg/mL (≈ 2.3 µM)
O=C(O)c1cn(C2CC2)c2cc(N3CC4ON=C(c5cccnc5)C4C3)c(F)cc2c1=O (stereo not drawn) [ID No. 136, 1-Cyclopropyl-6-fluoro-7-[3-(pyridin-3-yl)-3a,4,6,6a-tetrahydro-pyrrolo[3,4-d]isoxazol-5-yl]-4-oxo-1,4-dihydro-quinoline-3-carboxylic acid]	0.06 µg/mL (≈ 0.138 µM)	8 µg/mL (≈ 18.4 µM)	4 µg/mL (≈ 9.21 µM)	8 µg/mL (≈ 18.4 µM)	1 µg/mL (≈ 2.3 µM)
NCC1=NOC2CN(c3nc4c(cc3F)c(=O)c(C(=O)O)cn4-c3ccc(F)cc3F)CC12 (stereo not drawn) [ID No. 200, 7-(3-Aminomethyl-3a,4,6,6a-tetrahydro-pyrrolo[3,4-d]isoxazol-5-yl)-1-(2,4-difluoro-phenyl)-6-fluoro-4-oxo-1,4-dihydro-[1,8]naphthyridine-3-carboxylic acid]	0.12 µg/mL (≈ 0.261 µM)	> 16 µg/mL	> 16 µg/mL	> 16 µg/mL	1 µg/mL (≈ 2.18 µM)
O=C(O)c1cn(C2CC2)c2nc(N3CC4ON=C(c5ccc(C(F)(F)F)nc5)C4C3)c(F)cc2c1=O (stereo not drawn) [ID No. 112, 1-Cyclopropyl-6-fluoro-4-oxo-7-[3-(6-trifluoromethyl-pyridin-3-yl)-3a,4,6,6a-tetrahydro-pyrrolo[3,4-d]isoxazol-5-yl]-1,4-dihydro-[1,8]naphthyridine-3-carboxylic acid]	0.25 µg/mL (≈ 0.497 µM)	16 µg/mL (≈ 31.8 µM)	> 16 µg/mL	8 µg/mL (≈ 15.9 µM)	2 µg/mL (≈ 3.97 µM)
O=C(O)c1cn(-c2ccc(F)cc2F)c2nc(N3CC4ON=C(c5cccnc5)C4C3)c(F)cc2c1=O (stereo not drawn) [ID No. 105, 1-(2,4-Difluoro-phenyl)-6-fluoro-4-oxo-7-(3-pyridin-3-yl-3a,4,6,6a-tetrahydro-pyrrolo[3,4-d]isoxazol-5-yl)-1,4-dihydro-[1,8]naphthyridine-3-carboxylic acid]	0.06 µg/mL (≈ 0.118 µM)	0.5 µg/mL (≈ 0.985 µM)	2 µg/mL (≈ 3.94 µM)	2 µg/mL (≈ 3.94 µM)	1 µg/mL (≈ 1.97 µM)
O=C(O)c1cn(C2CC2)c2nc(N3CC4ON=C(CN5C(=O)c6ccccc6C5=O)C4C3)c(F)cc2c1=O (stereo not drawn) [ID No. 118, 1-Cyclopropyl-7-[3-(1,3-dioxo-1,3-dihydro-isoindol-2-ylmethyl)-3a,4,6,6a-tetrahydro-pyrrolo[3,4-d]isoxazol-5-yl]-6-fluoro-4-oxo-1,4-dihydro-[1,8]naphthyridine-3-carboxylic acid]	2 µg/mL (≈ 3.86 µM)	> 16 µg/mL	> 16 µg/mL	> 16 µg/mL	16 µg/mL (≈ 30.9 µM)
COc1c(N2C[C@@H]3ON=C(c4ccccn4)[C@@H]3C2)ccc2c(=O)c(C(=O)O)cn(C3CC3)c12 (relative stereo) [ID No. 150, 7-[cis-3-(2-pyridyl)-3a,4,6,6a-tetrahydropyrrolo[3,4-d]isoxazol-5-yl]-1-cyclopropyl-8-methoxy-4-oxo-1,4-dihydroquinoline-3-carboxylic acid]	0.06 µg/mL (≈ 0.134 µM)	> 16 µg/mL	8 µg/mL (≈ 17.9 µM)	8 µg/mL (≈ 17.9 µM)	1 µg/mL (≈ 2.24 µM)
O=C(O)c1cn(C2CC2)c2cc(N3CC4ON=C(c5ccccn5)C4C3)c(F)cc2c1=O (stereo not drawn) [ID No. 135, 1-Cyclopropyl-6-fluoro-7-[3-(pyridin-2-yl)-3a,4,6,6a-tetrahydro-pyrrolo[3,4-d]isoxazol-5-yl]-4-oxo-1,4-dihydro-quinoline-3-carboxylic acid]	0.03 µg/mL (≈ 0.0691 µM)	8 µg/mL (≈ 18.4 µM)	2 µg/mL (≈ 4.6 µM)	4 µg/mL (≈ 9.21 µM)	1 µg/mL (≈ 2.3 µM)
